Columns and labels:
[1] = bioavailability / absorption of nucleoside and prodrug; format: in vivo
[2] = tested on: hepatitis C virus (HCV); conditions: patients infected with hepatitis C virus

## [N-]=[N+]=NC1(CO)OC(n2ccc(N)nc2=O)C(O)C1O (stereo not shown) [II, 4-Amino-1-(5-azido-3,4-dihydroxy-5-hydroxymethyl-tetrahydro-furan-2-yl)-1H-pyrimidin-2-one, reference compound]
[1]; in vivo
  bioavailability: insufficient bioavailabilty

## CC(C)C(=O)OC[C@@]1(N=[N+]=[N-])O[C@@H](n2ccc(N)nc2=O)[C@H](OC(=O)C(C)C)[C@@H]1OC(=O)C(C)C.Cl [I, isobutyric acid (2R,3S,4R,5R)-5-(4-amino-2-oxo-2H-pyrimidin-1-yl)-2-azido-3,4-bis-iso-butyryloxy-tetrahydro-furan-2-ylmethyl ester; hydrochloride salt]
[1]; in vivo
  absorption: efficiently absorbed
[1]; plasma
  reversion of prodrug in plasma: revert to I in plasma
[2]
  viral load: decrease the viral load

Source: US7893037B2, “Pharmaceutical composition and process” (Roche Palo Alto LLC, priority 2007, dated 2011)
